In patent US5292737A, “N,N'-bis(sulfonamido)-2-amino-4-iminonaphthalen-1-ones and N,N'-bis(amido)-2-amino-4-iminonaphthalen-1-ones” (Sphinx Pharmaceuticals Corporation, priority 1992, dated 1994) one finds IC50 data, which are given here for 10 molecules.

Molecules are shown by their SMILES.

Experiment [1] addresses T1, PKC isoenzyme ε (Homo sapiens, UniProt Q02156).
T1 construct: made in house; host or cells: baculovirus-insect cell expression system
T1 sequence (Q02156 1-737): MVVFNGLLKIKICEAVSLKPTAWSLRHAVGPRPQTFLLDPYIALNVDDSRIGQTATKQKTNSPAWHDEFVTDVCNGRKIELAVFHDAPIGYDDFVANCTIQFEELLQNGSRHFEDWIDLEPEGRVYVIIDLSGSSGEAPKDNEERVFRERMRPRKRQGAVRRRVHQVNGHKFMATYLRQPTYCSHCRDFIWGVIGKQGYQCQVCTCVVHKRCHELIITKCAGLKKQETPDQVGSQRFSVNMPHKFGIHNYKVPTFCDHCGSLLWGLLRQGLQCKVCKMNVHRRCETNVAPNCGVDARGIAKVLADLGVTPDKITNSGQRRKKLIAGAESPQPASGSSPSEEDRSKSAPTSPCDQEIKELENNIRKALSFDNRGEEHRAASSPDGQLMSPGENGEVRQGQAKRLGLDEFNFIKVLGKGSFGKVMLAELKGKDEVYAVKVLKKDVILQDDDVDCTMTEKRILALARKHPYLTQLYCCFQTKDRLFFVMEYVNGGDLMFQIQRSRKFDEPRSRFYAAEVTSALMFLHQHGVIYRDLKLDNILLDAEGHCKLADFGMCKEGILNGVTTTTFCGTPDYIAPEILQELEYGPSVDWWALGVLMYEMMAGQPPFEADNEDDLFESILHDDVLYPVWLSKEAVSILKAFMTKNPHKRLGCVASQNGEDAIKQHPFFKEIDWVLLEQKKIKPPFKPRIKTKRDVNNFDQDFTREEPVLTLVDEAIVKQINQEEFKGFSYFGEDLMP
In words: Protein kinase C inhibition assay, PKC isoenzyme ε. It is filed as biochemical. Particulars: read-out: IC50 PKC ε. The essentials:
(§1)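 Inhibition is measured as the compound concentration halving phosphate transfer to histone H1 or myelin basic protein by baculovirus-expressed enzyme. Assays use near-physiologic conditions with sub-saturating phosphatidylserine/DAG vesicles, compound at four concentrations up to 150 μM, and a 10 min reaction terminated by trichloroacetic acid before filter counting.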

For experiment [2], the system named is MCF-7 human breast tumor cell line. Description: Human Tumor Cell Growth Inhibition (3H-thymidine incorporation). It is filed as cell-based. How it is done: MCF-7 a human breast tumor cell line was obtained from the National Cancer Institute, Frederick, Md. Tumor cells were trypsinized with 0.05% trypsin obtained from GIBCO (Grand Island Biological Co. Laboratories, Grand Island, N.Y.), counted with a hemacytometer and seeded at a concentration of 7,500 cells/well in a 96 well microtiter plate and allowed to attach to the surface overnight. To determine a concentration response, test agents were serially diluted an […] added at 2× final concentration to quadruplicate cultures to bring the total volume of each well to […]. The microtiter plate was then incubated at 37° C., 5% CO2 for 24 hrs with ^3 H-thymidine added at a concentration of 0.5 mCi/well in […] of 0.05% trypsin (GIBCO) was added to each well. Cells were checked microscopically to determine detachment from surfaces, and plates were harvested with a cell harvester (PHD, Cambridge Technology, Inc.). Filter paper corresponding to wells were placed in scintillation vials and counted to determine the amount ^3 H-thymidine incorporated by the cells. Counts per minute (CPM) of quadruplicate cultures were averaged and a percent of control calculated for each test agent concentration by the following formula: [formula]
The IC50 or concentration necessary to inhibit the proliferation of cells by 50% compared to control, of each test agent was determined by plotting % control vs log concentration for each dilution and then linear forecasting the 50% control value onto the X axis on a Quattro Pro computer program. Only regression values with a correlation coefficient greater then 0.9 were considered acceptable.

Experiment [3] addresses T2, PKC isoenzyme ζ (Homo sapiens, UniProt Q05513).
T2 construct: made in house; host or cells: baculovirus-insect cell expression system
T2 sequence (Q05513 1-592): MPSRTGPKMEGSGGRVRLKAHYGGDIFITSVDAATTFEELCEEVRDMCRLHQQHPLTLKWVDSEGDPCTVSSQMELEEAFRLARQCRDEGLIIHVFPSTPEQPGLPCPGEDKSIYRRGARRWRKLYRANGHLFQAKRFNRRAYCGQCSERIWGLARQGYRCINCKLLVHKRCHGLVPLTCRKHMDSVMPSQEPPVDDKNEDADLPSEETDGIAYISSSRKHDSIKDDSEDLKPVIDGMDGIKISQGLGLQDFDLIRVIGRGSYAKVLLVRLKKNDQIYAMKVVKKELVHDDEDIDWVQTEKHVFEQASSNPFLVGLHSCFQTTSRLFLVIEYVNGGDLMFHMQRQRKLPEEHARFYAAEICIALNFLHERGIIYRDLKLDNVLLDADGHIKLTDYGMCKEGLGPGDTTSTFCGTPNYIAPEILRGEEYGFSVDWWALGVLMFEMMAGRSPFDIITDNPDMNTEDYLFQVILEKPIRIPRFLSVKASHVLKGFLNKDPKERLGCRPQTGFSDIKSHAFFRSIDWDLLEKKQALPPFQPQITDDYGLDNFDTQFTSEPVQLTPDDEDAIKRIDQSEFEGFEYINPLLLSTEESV
In words: Protein kinase C inhibition assay, PKC isoenzyme ζ. Particulars: read-out: IC50 PKC .zeta. The format is biochemical. The essentials: as §1

Experiment [4] addresses T3, PKC isoenzyme α (Homo sapiens, UniProt P17252).
T3 construct: made in house; host or cells: baculovirus-insect cell expression system
In words: Protein kinase C inhibition assay, PKC isoenzyme α. The format is biochemical. The note with it: read-out: IC50 PKC α. The essentials:
as §1

Where [5] appears, read: Homo sapiens, MCF7, MCF-7, 24 hrs.

In the case of `Cc1cc(C)nc(NS(=O)(=O)c2cc(N=C3C=C(Nc4ccc(C)c(S(=O)(=O)Nc5cc(C)cc(C)n5)c4)C(=O)c4ccccc43)ccc2C)c1` [Compound 3ag], the half-inhibitory concentration (IC50) (usually the midpoint of a concentration-inhibition curve) in experiment [1] is 8 µM; in experiment [2] (setting [5]) it was 2.4 µM; in experiment [3], 28 µM; in experiment [4] it was 7 µM.
For `Cc1cc(C)nc(NC(=O)c2ccc(N=C3C=C(Nc4ccc(C(=O)Nc5cc(C)cc(C)n5)cc4)C(=O)c4ccccc43)cc2)c1` [Compound 3ah] the same measures were > 150 µM, 1.4 µM, > 150 µM and 136 µM.
The like results for `Cc1cc(C)nc(NC(=O)c2ccc(N=C3C=C(Nc4ccc(C(=O)Nc5nc(C)cc(C)n5)cc4)C(=O)c4ccccc43)cc2)n1` [Compound 3ai] were, in that order, > 105 µM, 0.03 µM, > 150 µM and 56 µM.
For `O=C1C(Nc2ccc(S(=O)(=O)Nc3ccccn3)cc2)=CC(=Nc2ccc(S(=O)(=O)Nc3ccccn3)cc2)c2ccccc21` [Compound 3i], the 50% inhibitory concentration (IC50) is > 150 µM in experiment [1], 13.8 µM in experiment [2] (setting [5]), > 150 µM in experiment [3] and 23 µM in experiment [4].
As to `COc1ccc(NS(=O)(=O)c2ccc(N=C3C=C(Nc4ccc(S(=O)(=O)Nc5ccc(OC)nn5)cc4)C(=O)c4ccccc43)cc2)nn1` [Compound 3j], the IC50 in experiment [1] is > 150 µM; in experiment [2] (setting [5]), 16.1 µM; in experiment [3], > 150 µM; in experiment [4], 67 µM.
For `O=C1C(Nc2ccc(S(=O)(=O)Nc3cnc4ccccc4n3)cc2)=CC(=Nc2ccc(S(=O)(=O)Nc3cnc4ccccc4n3)cc2)c2ccccc21` [Compound 3m], the IC50 in experiment [1] was > 150 µM; in experiment [2] (setting [5]) it was 17.9 µM; in experiment [3] it was 28 µM; in experiment [4], 8 µM.
The like results for `O=C1C(Nc2ccc(S(=O)(=O)NCc3ccccn3)cc2)=CC(=Nc2ccc(S(=O)(=O)NCc3ccccn3)cc2)c2ccccc21` [Compound 3n] were, in that order, > 150 µM, 1.02 µM, > 150 µM and 75 µM.
Consider `Cc1cc(C)nc(NS(=O)(=O)c2cc(N=C3C=C(Nc4ccc(C)c(S(=O)(=O)Nc5cc(C)cc(C)n5)c4)C(=O)c4ccccc43)ccc2C)c1` [Compound 6ag], for which the IC50 in experiment [1] is 35 µM; in experiment [2] (MCF-7, 24 hrs), 1.8 µM; in experiment [3] it was > 150 µM; in experiment [4], 22 µM.
The like results for `Cc1cc(C)nc(NS(=O)(=O)c2ccc(N=C3C=C(Nc4ccc(S(=O)(=O)Nc5nc(C)cc(C)n5)cc4)C(=O)c4ccccc43)cc2)n1` [Compound 6c] were, in that order, 15 µM, 15.5 µM, 132 µM and 7 µM.
For `O=C1C(Nc2ccc(S(=O)(=O)Nc3cnc4ccccc4n3)cc2)=CC(=Nc2ccc(S(=O)(=O)Nc3cnc4ccccc4n3)cc2)c2ccccc21` [Compound 6m] the same measures were 141 µM, 19 µM, 9 µM and 9 µM.
